Experimental data as given in patent US20170233413A1, “SUBSTITUTED ANNULATED PYRIMIDINES AND USE THEREOF” (Bayer Pharma Aktiengesellschaft, priority 2014, published 2017).
pIC50: −log10 of the molar value.

Experiments:
[1] = biological target: T1, recombinant guanylate cyclase reporter cell line (Rattus norvegicus, UniProt P19686+P20595); assay: Effect on a recombinant guanylate cyclase reporter cell line; assay type: cell-based; conditions: MEC = minimum effective concentration; in some cases means of individual determinations
T1 construct: expressed in transfected cells
T1 sequence (P19686 1-690): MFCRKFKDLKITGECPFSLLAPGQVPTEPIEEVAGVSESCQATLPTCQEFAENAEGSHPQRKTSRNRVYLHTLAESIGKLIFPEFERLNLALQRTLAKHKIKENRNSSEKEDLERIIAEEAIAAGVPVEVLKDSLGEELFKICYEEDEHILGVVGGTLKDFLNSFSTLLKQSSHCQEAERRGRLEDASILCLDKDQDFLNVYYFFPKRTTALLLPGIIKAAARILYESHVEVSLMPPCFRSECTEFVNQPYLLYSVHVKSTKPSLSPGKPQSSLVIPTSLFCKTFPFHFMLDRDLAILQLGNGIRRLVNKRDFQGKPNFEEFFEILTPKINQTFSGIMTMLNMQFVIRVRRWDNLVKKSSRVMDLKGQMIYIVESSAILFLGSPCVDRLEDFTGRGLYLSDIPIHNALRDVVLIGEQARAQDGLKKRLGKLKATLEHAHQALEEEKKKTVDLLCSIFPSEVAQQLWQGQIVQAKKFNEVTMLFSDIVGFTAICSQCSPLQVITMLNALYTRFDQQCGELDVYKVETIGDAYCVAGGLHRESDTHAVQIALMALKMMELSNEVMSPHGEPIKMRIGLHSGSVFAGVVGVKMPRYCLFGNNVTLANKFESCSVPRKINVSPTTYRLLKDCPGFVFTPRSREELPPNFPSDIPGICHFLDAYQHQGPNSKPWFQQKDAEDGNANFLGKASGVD
T1 sequence (P20595 1-619): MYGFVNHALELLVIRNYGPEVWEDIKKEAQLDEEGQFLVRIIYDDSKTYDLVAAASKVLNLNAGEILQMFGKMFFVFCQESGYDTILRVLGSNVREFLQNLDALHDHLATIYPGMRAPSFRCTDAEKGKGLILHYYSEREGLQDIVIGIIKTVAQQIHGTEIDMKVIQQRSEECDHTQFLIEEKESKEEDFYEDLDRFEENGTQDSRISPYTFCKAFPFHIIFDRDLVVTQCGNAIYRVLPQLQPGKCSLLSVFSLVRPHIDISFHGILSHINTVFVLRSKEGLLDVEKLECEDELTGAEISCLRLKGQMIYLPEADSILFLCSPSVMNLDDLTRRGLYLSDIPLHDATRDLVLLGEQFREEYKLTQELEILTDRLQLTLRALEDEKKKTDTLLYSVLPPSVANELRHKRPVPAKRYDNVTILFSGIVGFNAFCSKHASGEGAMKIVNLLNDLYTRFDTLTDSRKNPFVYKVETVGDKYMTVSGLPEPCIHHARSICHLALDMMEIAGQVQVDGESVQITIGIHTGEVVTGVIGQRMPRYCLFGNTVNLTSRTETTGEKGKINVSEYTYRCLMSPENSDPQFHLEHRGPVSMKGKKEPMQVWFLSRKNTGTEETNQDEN
Outline: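 Cellular activity measured in a recombinant rat soluble guanylate cyclase reporter cell line. Values are minimum effective concentration (MEC), some given as means of individual determinations.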

[2] = biological target: T2, human phosphodiesterase 5 (PDE 5) (Homo sapiens, UniProt O76074); assay: Inhibition of human phosphodiesterase 5 (PDE 5); assay type: biochemical; conditions: PDE 5 preparation from human platelets; in some cases means of individual determinations
T2 construct: PDE 5 preparations are obtained from human platelets by disruption; from tissue; host or cells: human platelets
Outline: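 Enzyme partially purified from human platelets by Mono Q ion exchange, diluted so that under 70% of substrate converts. [8-3H]cGMP at 0.025 μCi per well in Tris pH 7.5 with MgCl2/EDTA, 60 min at room temperature, yttrium SPA bead read-out. Final compound concentrations 4–0.0018 μM; IC50 from concentration–inhibition plot.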

CC1(C)C(=O)Nc2nc(-c3nn(Cc4ccccc4F)c4ncccc34)nc(C(=O)NCC3(O)CC3)c21 [Example 138, 2-[1-(2-fluorobenzyl)-1H-pyrazolo[3,4-b]pyridin-3-yl]-N-[(1-hydroxycyclopropyl)methyl]-5,5-dimethyl-6-oxo-6,7-dihydro-5H-pyrrolo[2,3-d]pyrimidine-4-carboxamide]
MEC [1]: 1 µM
pIC50 [2]: 7.68
